According to patent publication US8980932B2, “Cancer targeting using carbonic anhydrase isoform IX inhibitors” (Stichting Maastricht Radiation Oncology “Maastro-Clinic”, priority 2010, dated 2015):
Read-outs that look alike come from different tables or passages of the source.

Assays:
hCA IX = hCA IX (Homo sapiens (Human), UniProt Q16790); assay: CA-catalyzed CO2 hydration stopped-flow inhibition assay, hCA IX
Protocol: The uncatalyzed rates were determined in the same manner and subtracted from the total observed rates. Stock solutions of inhibitor (1 mM) were prepared in distilled-deionized water with 10-20% (v/v) DMSO (which is not inhibitory at these concentrations) and dilutions up to 0.1 nM were done thereafter with distilled-deionized water. Inhibitor and enzyme solutions were preincubated together for 15 min at room temperature prior to assay, in order to allow for the formation of CA IX-inhibitor complex. The inhibition constants were obtained by non-linear last-squares methods using PRISM 3 and represent the mean from at least three different determinations.

[1] = system: cervical (HeLa) carcinoma cell line; assay: Extracellular acidification (delta pH of medium) in HeLa cells; type: cell-based, human
Protocol: (§1) The experiment was set up as previously described (Dubois et al, 2007). A colorectal (HT-29) (FIG. 5a) and a cervical (HeLa) (FIG. 5b) carcinoma cell line were tested in normoxic (ambient oxygen concentration) and hypoxic (0.2% oxygen) conditions. HT-29 cells are known to be constitutive hypoxia inducible CA IX (CA IX expression under normoxia and increased CA IX expression upon hypoxia) expressing cells. Therefore, compounds were added after 1 h of hypoxic exposure (to ensure active CA IX) and incubation was done for another 23 h (total of 24 h hypoxia). HeLa cells are hypoxia inducible (at lower density) CA IX expressing cells. Therefore, HeLa were first incubated for 24 h hypoxia to ensure CA IX expression in the first place (time point assessed in time series experiments). Afterwards, compounds were added and cells were incubated for another 24 h.
(§2) Experiments were performed in triplicate for each condition. The described conditions were done both for HT-29 and HeLa under normoxic and hypoxic conditions.
(§3) Following conditions were assessed: • Blank 1 mM or 0.1 mM (no addition of compound, only DMSO/PBS) • DH307 1 mM or 0.1 mM • DH310 1 mM or 0.1 mM • DH338 1 mM or 0.1 mM • DH348 1 mM or 0.1 mM • S=AEBS (4-(2-aminoethylbenzenesulfonamide); Sigma) 1 mM or 0.1 mM (known to reduce extracellular pH as described by (Svastova et al, 2004))
(§4) Cells were seeded in 6 cm dishes (HT-29: 10e6; HeLa: 4×10^5: to compensate for cell size) in 5 ml of DMEM supplemented with 10% FCS. The day after, medium was replaced by 3.6 ml of freshly prepared DMEM/FCS 10%, from which the pH was measured=pH at incubation), after which dishes were placed in the hypoxic chamber (normoxic dishes remained at ambient air in the incubator: 37° C., 95% humidity, 5% CO2). Compounds were added (1 h for HT-29 or 24 h for HeLa after start hypoxic exposure) to have a final concentration of 1 mM or 0.1 mM, by adding 400 μl to the dishes, starting from a 10 or 1 mM stock (DMSO final concentration 0.1%). Blanc controls received DMSO/PBS without compound. pH of the medium was measured after 24 h (HT-29) or 48 h (HeLa) inside the hypoxic chamber after calibration of the electrode to reduced oxygen concentrations. Delta pH (pH at end hypoxic exposure−pH of replacement medium before incubation) were calculated and shown in the graph of FIGS. 5a and 5b.

[2] = system: colorectal (HT-29) carcinoma cell line; assay: Extracellular acidification (delta pH of medium) in HT-29 cells; type: cell-based; conditions: for reduction of extracellular acidification: HT-29, hypoxia (0.2% oxygen)
Protocol: as §1, §2, §3, §4

[3] = read-out: KI hCA IX, stopped-flow CO2 hydration, pH 7.5, 15 min preincubation

Compound	melting point [°C]	Ki (hCA IX; [3]) [nM]	reduction of extracellular acidification ([2]; 1 mM)	further results
NS(=O)(=O)c1ccc(NC(=O)Cn2ccnc2[N+](=O)[O-])cc1 [Compound 4a, 2-(2-nitro-imidazol-1-yl)-N-(4-sulfamoylphenyl)acetamide]	163 to 165	70	–	–
NS(=O)(=O)c1cccc(NC(=O)Cn2ccnc2[N+](=O)[O-])c1 [Compound 4b, 2-(2-nitro-imidazol-1-yl)-N-(3-sulfamoylphenyl)acetamide]	195 to 197	–	–	–
NS(=O)(=O)c1ccc(CCNC(=O)Cn2ccnc2[N+](=O)[O-])cc1 [Compound 4d, 2-(2-nitro-imidazol-1-yl)-N-[2-(4-sulfamoylphenyl)ethyl]acetamide]	139 to 141	–	–	Ki (hCA IX): 7.3 nM
Cc1ncc([N+](=O)[O-])n1CCNC(=S)Nc1ccc(S(N)(=O)=O)cc1 [Compound 6a, N-(4-sulfamoylphenyl)-N-((2-aminoethyl)-2-methyl-5-nitroimidazolyl)thiourea]	–	7.3	–	–
Cc1ncc([N+](=O)[O-])n1CCNC(=S)NCc1ccc(S(N)(=O)=O)cc1 [Compound 6c, N-(4-sulfamoylbenzyl)-N-((2-aminoethyl)-2-methyl-5-nitroimidazolyl)thiourea]	–	8.3	–	reduction of extracellular acidification ([1]; hypoxia (0.2% oxygen), 0.1 mM): strong reduction; reduction of extracellular acidification ([1]; hypoxia (0.2% oxygen), 1 mM): made the medium alkaline
Cc1ncc([N+](=O)[O-])n1CCNC(=S)NCCc1ccc(S(N)(=O)=O)cc1 [Compound 6d, N-(4-sulfamoylphenylethyl)-N-((2-aminoethyl)-2-methyl-5-nitroimidazolyl)thiourea]	–	7.8	–	–
Cc1ncc([N+](=O)[O-])n1CCNS(N)(=O)=O [Compound 7, N-[2-(2-methyl-5-nitro-imidazol-1-yl)ethyl]sulfamide]	122	–	best results	reduction of extracellular acidification ([2]; 0.1 mM): additional reduction compared with the other compounds; reduction of extracellular acidification ([1]; hypoxia, concentration not specified): best results
NCCc1ccc(S(N)(=O)=O)cc1 [S, 4-(2-aminoethylbenzenesulfonamide), reference compound]	–	–	effectively reduced the extracellular acidification	reduction of extracellular acidification ([2]; 0.1 mM): less; effect on extracellular acidification upon normoxic exposure ([2]; HT-29, normoxia): No effect; reduction of extracellular acidification ([1]; hypoxia (0.2% oxygen), 0.1 mM): less; reduction of extracellular acidification ([1]; hypoxia (0.2% oxygen), 1 mM): effectively reduced the extracellular acidification; effect on extracellular acidification upon normoxic exposure ([1]; normoxia): No effect
N-[2-(2-methyl-5-nitro-imidazol-1-yl)ethyl]sulfamate [Compound 9]	–	–	best results	–
